Experimental data reported in PubChem BioAssay (NCI).
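Interpolation was linear, between the two tested concentrations surrounding the appropriate level; five concentrations were tested over 48 hours in 96-well plates. Definition used: TGI = concentration required for complete inhibition of growth.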 Where a SMILES comes first, the peptide text is derived from it. [ ]: non-standard residue; d: D form. The star is where a group is joined. AllylGly = C=CC[CH](N)C(=O)O; Boc = CC(C)(C)OC(=O)*; OtBu = CC(C)(C)O*

Key:
Test in all cases: NCI anticancer screen, dose series, 48 h
BT-549 breast = tested on: BT-549 breast
HOP-62 NSCLC = tested on: HOP-62 NSCLC
MOLT-4 leukemia = tested on: MOLT-4 leukemia
NCI/ADR-RES ovarian = tested on: NCI/ADR-RES ovarian
OVCAR-4 ovarian = tested on: OVCAR-4 ovarian
OVCAR-8 ovarian = tested on: OVCAR-8 ovarian
SF-539 CNS = tested on: SF-539 CNS
SK-MEL-28 melanoma = tested on: SK-MEL-28 melanoma
SN12C renal = tested on: SN12C renal
SW-620 colon = tested on: SW-620 colon

Cc1ccc(S(=O)(=O)NN=C2CCCCCCCCCCC2)cc1
TGI (BT-549 breast): > 100 µM
TGI (HOP-62 NSCLC): > 100 µM
TGI (MOLT-4 leukemia): > 100 µM
TGI (NCI/ADR-RES ovarian): > 100 µM
TGI (OVCAR-4 ovarian): > 100 µM
TGI (OVCAR-8 ovarian): > 100 µM
TGI (SF-539 CNS): > 100 µM
TGI (SK-MEL-28 melanoma): > 100 µM
TGI (SN12C renal): > 100 µM
TGI (SW-620 colon): > 100 µM

C=CCC(NC(=O)C(CC(=O)OC(C)(C)C)NC(=O)OC(C)(C)C)C(=O)OC (configuration not stated) (Boc-Asp(OtBu)-[AllylGly]-OMe; configuration not given here)
TGI (BT-549 breast): > 100 µM
TGI (HOP-62 NSCLC): > 100 µM
TGI (MOLT-4 leukemia): > 91.6 µM
TGI (NCI/ADR-RES ovarian): > 100 µM
TGI (OVCAR-4 ovarian): > 100 µM
TGI (OVCAR-8 ovarian): 26.6 µM
TGI (SF-539 CNS): > 100 µM
TGI (SK-MEL-28 melanoma): > 100 µM
TGI (SN12C renal): > 100 µM
TGI (SW-620 colon): > 100 µM

CC(OC(=O)NCn1cc(-c2ccccc2)nn1)c1ccccc1 (configuration not stated)
TGI (BT-549 breast): > 100 µM
TGI (HOP-62 NSCLC): > 100 µM
TGI (MOLT-4 leukemia): 47.4 µM
TGI (NCI/ADR-RES ovarian): > 100 µM
TGI (OVCAR-8 ovarian): > 100 µM
TGI (SF-539 CNS): > 100 µM
TGI (SK-MEL-28 melanoma): > 100 µM
TGI (SN12C renal): > 100 µM
TGI (SW-620 colon): > 100 µM

O=C1Nc2cccc(Cl)c2/C1=C\c1c(Cl)nc2sccn12
TGI (BT-549 breast): 74.9 µM
TGI (HOP-62 NSCLC): 33.8 µM
TGI (MOLT-4 leukemia): > 100 µM
TGI (NCI/ADR-RES ovarian): > 100 µM
TGI (OVCAR-8 ovarian): > 100 µM
TGI (SF-539 CNS): 18.8 µM
TGI (SK-MEL-28 melanoma): > 100 µM
TGI (SN12C renal): > 100 µM
TGI (SW-620 colon): > 100 µM

CC1(c2nc3cc(Cl)c(Cl)cc3[nH]2)CCC(CO)C(C)(C)O1 (configuration not stated)
TGI (BT-549 breast): 44.8 µM
TGI (HOP-62 NSCLC): > 100 µM
TGI (MOLT-4 leukemia): > 100 µM
TGI (NCI/ADR-RES ovarian): 44.5 µM
TGI (OVCAR-4 ovarian): > 100 µM
TGI (OVCAR-8 ovarian): 61.4 µM
TGI (SF-539 CNS): 70.5 µM
TGI (SK-MEL-28 melanoma): 92 µM
TGI (SN12C renal): > 100 µM
TGI (SW-620 colon): > 100 µM

COc1ccc(/C=C2\C[C@H]3[C@@H]4CCC5=C[C@@H](N6CCCC6)CC[C@]5(C)[C@H]4CC[C@]3(C)[C@H]2O)cc1
TGI (BT-549 breast): 14.1 µM
TGI (HOP-62 NSCLC): 3.74 µM
TGI (MOLT-4 leukemia): > 45.4 µM
TGI (NCI/ADR-RES ovarian): 16.8 µM
TGI (OVCAR-4 ovarian): 13.9 µM
TGI (OVCAR-8 ovarian): 16.4 µM
TGI (SF-539 CNS): 5.71 µM
TGI (SK-MEL-28 melanoma): 3.66 µM
TGI (SN12C renal): 12.3 µM

CC1(C)N=C(C(N)=O)c2ncn(-c3ccccc3)c2N1
TGI (HOP-62 NSCLC): > 100 µM
TGI (NCI/ADR-RES ovarian): > 100 µM
TGI (OVCAR-4 ovarian): > 100 µM
TGI (OVCAR-8 ovarian): > 100 µM
TGI (SF-539 CNS): > 100 µM
TGI (SK-MEL-28 melanoma): > 100 µM
TGI (SN12C renal): > 100 µM
TGI (SW-620 colon): > 100 µM

CC(C)(C)NN=C1C(C)(C)C(=NNC(C)(C)C)C1(C)C
TGI (HOP-62 NSCLC): > 100 µM
TGI (MOLT-4 leukemia): > 100 µM
TGI (OVCAR-4 ovarian): > 100 µM
TGI (OVCAR-8 ovarian): > 100 µM
TGI (SF-539 CNS): > 100 µM
TGI (SK-MEL-28 melanoma): > 100 µM
TGI (SN12C renal): > 100 µM
TGI (SW-620 colon): > 100 µM

COc1cc(CCCOC(=O)/C=C/c2ccc(O)c(O)c2)cc(O)c1O
TGI (BT-549 breast): > 100 µM
TGI (HOP-62 NSCLC): > 100 µM
TGI (MOLT-4 leukemia): > 100 µM
TGI (OVCAR-4 ovarian): > 100 µM
TGI (OVCAR-8 ovarian): > 100 µM
TGI (SF-539 CNS): 90.2 µM
TGI (SK-MEL-28 melanoma): > 100 µM
TGI (SN12C renal): > 100 µM
TGI (SW-620 colon): 35.9 µM

O=c1[nH]c(=O)n(C2CC(O)C(CO)O2)cc1OCCCc1ccccc1 (configuration not stated)
TGI (BT-549 breast): > 100 µM
TGI (HOP-62 NSCLC): > 100 µM
TGI (MOLT-4 leukemia): > 100 µM
TGI (NCI/ADR-RES ovarian): > 100 µM
TGI (OVCAR-4 ovarian): > 100 µM
TGI (OVCAR-8 ovarian): > 100 µM
TGI (SK-MEL-28 melanoma): > 100 µM
TGI (SN12C renal): > 100 µM

O=c1[nH]c(Nc2cccc(C(F)(F)F)c2)nc2nc[nH]c12
TGI (HOP-62 NSCLC): > 100 µM
TGI (MOLT-4 leukemia): > 100 µM
TGI (NCI/ADR-RES ovarian): > 100 µM
TGI (OVCAR-4 ovarian): > 100 µM
TGI (OVCAR-8 ovarian): > 100 µM
TGI (SF-539 CNS): > 100 µM
TGI (SK-MEL-28 melanoma): > 100 µM
TGI (SN12C renal): > 100 µM
TGI (SW-620 colon): > 100 µM

CCCCCNc1nonc1N
TGI (HOP-62 NSCLC): > 100 µM
TGI (MOLT-4 leukemia): > 100 µM
TGI (NCI/ADR-RES ovarian): > 100 µM
TGI (OVCAR-4 ovarian): > 100 µM
TGI (OVCAR-8 ovarian): > 100 µM
TGI (SF-539 CNS): > 100 µM
TGI (SK-MEL-28 melanoma): > 100 µM
TGI (SN12C renal): > 100 µM
TGI (SW-620 colon): > 100 µM

Cc1cccc2c1Oc1ccccc1C2NC(=O)c1ccc([N+](=O)[O-])cc1 (configuration not stated)
TGI (BT-549 breast): > 100 µM
TGI (HOP-62 NSCLC): > 100 µM
TGI (MOLT-4 leukemia): > 100 µM
TGI (NCI/ADR-RES ovarian): > 100 µM
TGI (OVCAR-4 ovarian): > 100 µM
TGI (OVCAR-8 ovarian): > 100 µM
TGI (SK-MEL-28 melanoma): > 100 µM
TGI (SN12C renal): 91 µM
TGI (SW-620 colon): > 100 µM

Cn1c(=O)cc(NCc2ccc(Cl)cc2)[nH]c1=O
TGI (BT-549 breast): > 100 µM
TGI (HOP-62 NSCLC): 77.4 µM
TGI (NCI/ADR-RES ovarian): > 100 µM
TGI (OVCAR-4 ovarian): > 100 µM
TGI (OVCAR-8 ovarian): > 100 µM
TGI (SF-539 CNS): > 100 µM
TGI (SK-MEL-28 melanoma): > 100 µM
TGI (SN12C renal): > 100 µM
TGI (SW-620 colon): > 100 µM

COC1=CC(=O)[C@H]2[C@H](C)C(c3ccccc3)[C@@]2(C)C1=O (some centres not stated)
TGI (HOP-62 NSCLC): > 100 µM
TGI (MOLT-4 leukemia): > 100 µM
TGI (OVCAR-4 ovarian): > 100 µM
TGI (OVCAR-8 ovarian): > 100 µM
TGI (SF-539 CNS): > 100 µM
TGI (SK-MEL-28 melanoma): > 100 µM
TGI (SW-620 colon): > 100 µM

COc1ccc2nc3ccc(OC)cc3c(S(=O)(=O)Cc3ccc([N+](=O)[O-])cc3)c2c1
TGI (HOP-62 NSCLC): > 100 µM
TGI (MOLT-4 leukemia): > 100 µM
TGI (NCI/ADR-RES ovarian): > 100 µM
TGI (OVCAR-4 ovarian): > 100 µM
TGI (OVCAR-8 ovarian): > 100 µM
TGI (SF-539 CNS): > 100 µM
TGI (SK-MEL-28 melanoma): > 100 µM
TGI (SN12C renal): > 100 µM
TGI (SW-620 colon): > 100 µM

COc1cccc(NC(=S)Nn2c(C)nc3ccccc3c2=O)c1
TGI (HOP-62 NSCLC): > 100 µM
TGI (MOLT-4 leukemia): > 100 µM
TGI (OVCAR-4 ovarian): > 100 µM
TGI (OVCAR-8 ovarian): > 100 µM
TGI (SF-539 CNS): > 100 µM
TGI (SK-MEL-28 melanoma): > 100 µM
TGI (SN12C renal): > 100 µM
TGI (SW-620 colon): > 100 µM

COC(=O)C(O)P(=O)(OC)OC (configuration not stated)
TGI (BT-549 breast): > 100 µM
TGI (HOP-62 NSCLC): > 100 µM
TGI (MOLT-4 leukemia): > 100 µM
TGI (NCI/ADR-RES ovarian): > 100 µM
TGI (OVCAR-4 ovarian): > 100 µM
TGI (OVCAR-8 ovarian): > 100 µM
TGI (SK-MEL-28 melanoma): > 100 µM
TGI (SN12C renal): > 100 µM
TGI (SW-620 colon): > 100 µM

OC12COc3ccccc3C1Oc1ccccc1C2 (configuration not stated)
TGI (BT-549 breast): > 100 µM
TGI (HOP-62 NSCLC): > 100 µM
TGI (MOLT-4 leukemia): > 100 µM
TGI (NCI/ADR-RES ovarian): > 100 µM
TGI (OVCAR-4 ovarian): > 100 µM
TGI (OVCAR-8 ovarian): > 100 µM
TGI (SF-539 CNS): > 100 µM
TGI (SN12C renal): > 100 µM
TGI (SW-620 colon): > 100 µM

CCCn1c(SCC)c2ccccc2c1-c1nc(F)nc(F)n1
TGI (HOP-62 NSCLC): > 100 µM
TGI (MOLT-4 leukemia): > 100 µM
TGI (OVCAR-4 ovarian): > 100 µM
TGI (SF-539 CNS): > 100 µM
TGI (SK-MEL-28 melanoma): > 100 µM
TGI (SN12C renal): > 100 µM
TGI (SW-620 colon): > 100 µM

CC(N)C(C)Cc1ccccc1 (configuration not stated)
TGI (BT-549 breast): > 100 µM
TGI (HOP-62 NSCLC): > 100 µM
TGI (MOLT-4 leukemia): > 100 µM
TGI (NCI/ADR-RES ovarian): > 100 µM
TGI (OVCAR-4 ovarian): > 100 µM
TGI (OVCAR-8 ovarian): > 100 µM
TGI (SK-MEL-28 melanoma): > 100 µM
TGI (SN12C renal): > 100 µM
TGI (SW-620 colon): > 100 µM

CCNC1(c2cccc(C)c2)OC(C)(C)c2cccc3cccc1c23 (configuration not stated)
TGI (BT-549 breast): 37.2 µM
TGI (HOP-62 NSCLC): 48.9 µM
TGI (NCI/ADR-RES ovarian): 42.6 µM
TGI (OVCAR-4 ovarian): 29.9 µM
TGI (OVCAR-8 ovarian): 36.5 µM
TGI (SF-539 CNS): 34.9 µM
TGI (SN12C renal): 35.9 µM
TGI (SW-620 colon): 36.6 µM
